Values belong to the compound of their own block, whether it stands above or below them. Numbered stars: 1 amine (or outer) side, 2 acyl side, 3 side chain; on linkers, the order of the positions; unused ones are H or OH. Bridge positions count the residues as written; N and C are the ends. Square brackets hold non-standard residues; d marks the D form. Triazole bridges read from a SMILES are 1,4-linked. Peptide text beside a SMILES is read from it. * marks the point of attachment. ξ: configuration not given here. Biotinyl(3aR,4R,6aS) = O=C1N[C@@H]2[C@@H](CS[C@@H]2CCCCC(=O)*)N1; Biotin = O=C1N[C@H]2[C@H](CS[C@H]2CCCCC(=O)*)N1; dLys(N3) = [N-]=[N+]=NCCCC[C@@H](N)C(=O)O; Lys(N3) = [N-]=[N+]=NCCCC[C@H](N)C(=O)O; Ethylenediamine = C(CN[*:2])N[*:1]; PEG5 = NCCOCCOCCOCCOCCOCCC(=O)O; ξY = NC(Cc1ccc(O)cc1)C(=O)O; AEEEA = NCCOCCOCCOCC(=O)O; ξR = N=C(N)NCCCC(N)C(=O)O; Pra = C#CC[C@H](N)C(=O)O; ξPra = C#CCC(N)C(=O)O; ξK = NCCCCC(N)C(=O)O; PEG1 = NCCOCCC(=O)O
Assays:
[1] = molecular target: Plasmodium falciparum Histidine Rich Protein-2 (Pf.HRP-2) (Plasmodium falciparum, UniProt P05227); experiment: biochemical; type: binding
[2] = molecular target: T1, recombinant human IL-17A protein (Homo sapiens, UniProt Q16552); experiment: ELISA affinity against IL-17A; type: binding
T1 construct: His tag
T1 sequence (Q16552 24-155): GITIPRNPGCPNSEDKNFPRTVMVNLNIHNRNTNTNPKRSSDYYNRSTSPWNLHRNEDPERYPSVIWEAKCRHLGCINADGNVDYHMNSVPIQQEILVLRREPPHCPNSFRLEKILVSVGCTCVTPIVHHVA
Experimental: The affinity of macrocycle LA3 (SEQ ID NO:44) against recombinant human IL-17A protein was determined by ELISA.

Structure (SMILES): CC(C)C[C@@H]1NC(=O)[C@H](CC(=O)O)NC(=O)[C@H](C(C)C)NC(=O)[C@H](CC(N)=O)NC(=O)[C@H](Cc2c[nH]c3ccccc23)NC(=O)CNC(=O)[C@](C)(NC(=O)[C@@H](N)CCCNC(=N)N)CCCCCC/C=C/CCC[C@@](C)(C(=O)N[C@@H](CCCCNC(=O)CCCC[C@@H]2SC[C@@H]3NC(=O)N[C@@H]32)C(=O)N[C@@H](CNC(=O)Cn2nncc2C[C@H](N)C(=O)N2CCC[C@@H]2C(=O)NCC(=O)N[C@H](CC(C)C)C(=O)N[C@H](CC(C)C)C(=O)N[C@H]2Cc3cn(nn3)CCCC[C@@H](C(N)=O)NC(=O)[C@H](CCCNC(=N)N)NC(=O)[C@H](Cc3ccc(O)cc3)NC(=O)[C@H](Cc3ccc(O)cc3)NC(=O)[C@H](CCCCN)NC(=O)[C@H](Cc3ccc(O)cc3)NC2=O)C(N)=O)NC1=O [cy(YKYYR)-linker-cy(GWNVDL)]
improvement over the better of the two ligand components ([1]; Pf.HRP-2): 100 fold

Structure (SMILES): N=C(N)NCCCC1NC(=O)[C@@H](Cc2ccc(O)cc2)NC(=O)[C@@H](Cc2ccc(O)cc2)NC(=O)C(CCCCN)NC(=O)C(Cc2ccc(O)cc2)NC(=O)C(N)Cc2cn(nn2)CCCC[C@H](C(=O)NCCOCCC(=O)NC2Cc3cn(nn3)CCCC[C@H](C(=O)NCCOCCOCCOCCOCCOCCC(=O)NCCNC(=O)CCCC[C@H]3SC[C@H]4NC(=O)N[C@H]43)NC(=O)C(CCCNC(=N)N)NC(=O)[C@@H](Cc3ccc(O)cc3)NC(=O)[C@@H](Cc3ccc(O)cc3)NC(=O)C(CCCCN)NC(=O)C(Cc3ccc(O)cc3)NC2=O)NC1=O (stereo partly drawn) [linked biligand] (H-[ξPra][ξY][ξK][dY][dY][ξR][dLys(N3)][PEG1][ξPra][ξY][ξK][dY][dY][ξR][dLys(N3)][PEG5]-{Ethylenediamine-Biotinyl(3aR,4R,6aS)}; triazole 1-7, 9-15)
EC50 [1]: 20.8 ± 1.3 nM

EC50 [2]: 4.5 ± 0.4 nM
Structure (SMILES): CC(C)C[C@H]1NC(=O)[C@@H](CCCNC(=N)N)NC(=O)[C@@H](Cc2ccccc2)NC(=O)[C@@H](Cc2c[nH]cn2)NC(=O)[C@@H](CCCNC(=N)N)NC(=O)[C@@H](NC(=O)COCCOCCOCCNC(=O)CCCC[C@@H]2SC[C@@H]3NC(=O)N[C@@H]32)Cc2cn(nn2)CCCC[C@@H](C(N)=O)NC1=O [LA3] ({Biotin-AEEEA}-[Pra][dR][dH][dF][dR][dL][Lys(N3)]-NH2; triazole 1-7)

Reference: patent publication US12546785B2, “IL-17F and IL-17A-specific capture agents, compositions, and methods of using and making” (Regeneron Pharmaceuticals, Inc., priority 2017, dated 2026)
